Source: ChEMBL document CHEMBL1139393 (Bioorg Med Chem Lett, 2008)

What was measured:
Interstitial collagenase = biological target: T1, Interstitial collagenase (Homo sapiens, UniProt P03956)
T1 sequence (P03956 whole entry): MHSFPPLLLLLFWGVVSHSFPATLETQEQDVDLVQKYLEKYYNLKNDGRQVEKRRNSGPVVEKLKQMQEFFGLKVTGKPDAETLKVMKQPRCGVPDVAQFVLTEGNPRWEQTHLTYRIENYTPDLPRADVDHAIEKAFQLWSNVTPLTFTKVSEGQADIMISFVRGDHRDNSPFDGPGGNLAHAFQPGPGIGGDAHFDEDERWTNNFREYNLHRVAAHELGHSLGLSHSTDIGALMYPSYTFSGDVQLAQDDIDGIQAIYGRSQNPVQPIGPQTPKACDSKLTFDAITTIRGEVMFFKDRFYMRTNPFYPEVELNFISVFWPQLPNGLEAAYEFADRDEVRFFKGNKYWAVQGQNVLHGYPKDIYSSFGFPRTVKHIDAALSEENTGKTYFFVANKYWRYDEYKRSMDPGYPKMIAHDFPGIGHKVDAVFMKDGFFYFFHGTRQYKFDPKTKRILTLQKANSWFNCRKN

Stromelysin-1 = Stromelysin-1 (Homo sapiens, UniProt P08254)
[1] = biological target: 72 kDa type IV collagenase (Homo sapiens, UniProt P08253)
[2] = biological target: Matrix metalloproteinase-14 (Homo sapiens, UniProt P50281)
[3] = biological target: T2, Disintegrin and metalloproteinase domain-containing protein 10 (Homo sapiens, UniProt O14672)
T2 sequence (O14672 whole entry): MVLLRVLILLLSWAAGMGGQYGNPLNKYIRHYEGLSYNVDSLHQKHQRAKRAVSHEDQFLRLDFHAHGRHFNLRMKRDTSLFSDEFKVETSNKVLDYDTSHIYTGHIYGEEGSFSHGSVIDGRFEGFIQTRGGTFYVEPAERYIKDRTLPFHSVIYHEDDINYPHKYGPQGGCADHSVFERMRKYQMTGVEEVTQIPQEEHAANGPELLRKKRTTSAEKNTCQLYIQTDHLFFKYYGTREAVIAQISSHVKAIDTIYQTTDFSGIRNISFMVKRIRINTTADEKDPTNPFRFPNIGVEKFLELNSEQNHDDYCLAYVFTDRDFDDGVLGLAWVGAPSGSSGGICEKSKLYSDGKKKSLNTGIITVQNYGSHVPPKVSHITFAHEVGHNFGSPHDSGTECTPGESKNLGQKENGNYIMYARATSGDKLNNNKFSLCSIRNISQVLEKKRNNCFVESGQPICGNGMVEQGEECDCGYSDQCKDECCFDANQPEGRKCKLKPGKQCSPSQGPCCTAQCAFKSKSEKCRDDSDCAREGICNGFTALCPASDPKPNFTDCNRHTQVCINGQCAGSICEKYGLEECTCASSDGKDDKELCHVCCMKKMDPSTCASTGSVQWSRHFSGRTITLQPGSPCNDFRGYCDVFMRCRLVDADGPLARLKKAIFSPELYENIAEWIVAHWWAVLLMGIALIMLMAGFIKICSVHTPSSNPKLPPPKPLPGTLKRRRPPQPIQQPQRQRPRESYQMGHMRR

Matrilysin = biological target: T3, Matrilysin (Homo sapiens, UniProt P09237)
T3 sequence (P09237 whole entry): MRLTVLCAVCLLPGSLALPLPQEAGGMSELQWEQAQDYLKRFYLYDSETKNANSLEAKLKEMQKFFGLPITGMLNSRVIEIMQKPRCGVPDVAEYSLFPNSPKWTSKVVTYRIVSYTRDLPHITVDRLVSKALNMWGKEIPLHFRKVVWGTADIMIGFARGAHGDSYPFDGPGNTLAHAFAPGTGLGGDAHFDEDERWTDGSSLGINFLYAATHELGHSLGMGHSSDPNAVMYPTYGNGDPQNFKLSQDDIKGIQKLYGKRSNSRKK

[4] = AUC in Sprague-Dawley rat at 10 mg/kg, po; format: ADME, organism-based; design: dose 10 mg/kg, route oral; settings: plasma
[5] = Permeability from apical to basolateral side of human Caco-2 cells; format: ADME, cell-based; settings: read-out: permeability

Stromelysin-1, sequence (P08254 whole entry): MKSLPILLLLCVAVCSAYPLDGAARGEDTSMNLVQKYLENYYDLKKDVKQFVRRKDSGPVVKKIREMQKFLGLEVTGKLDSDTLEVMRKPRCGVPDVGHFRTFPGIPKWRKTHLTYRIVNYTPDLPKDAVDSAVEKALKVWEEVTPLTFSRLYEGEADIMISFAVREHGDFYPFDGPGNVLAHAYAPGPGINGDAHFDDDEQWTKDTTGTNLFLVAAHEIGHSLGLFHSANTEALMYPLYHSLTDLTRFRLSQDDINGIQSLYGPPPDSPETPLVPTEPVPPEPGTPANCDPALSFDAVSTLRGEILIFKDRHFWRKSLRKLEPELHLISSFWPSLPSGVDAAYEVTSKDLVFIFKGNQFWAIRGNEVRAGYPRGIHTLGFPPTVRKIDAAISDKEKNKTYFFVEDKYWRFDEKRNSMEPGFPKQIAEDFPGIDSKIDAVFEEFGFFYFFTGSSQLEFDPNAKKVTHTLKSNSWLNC
72 kDa type IV collagenase, sequence (P08253 whole entry): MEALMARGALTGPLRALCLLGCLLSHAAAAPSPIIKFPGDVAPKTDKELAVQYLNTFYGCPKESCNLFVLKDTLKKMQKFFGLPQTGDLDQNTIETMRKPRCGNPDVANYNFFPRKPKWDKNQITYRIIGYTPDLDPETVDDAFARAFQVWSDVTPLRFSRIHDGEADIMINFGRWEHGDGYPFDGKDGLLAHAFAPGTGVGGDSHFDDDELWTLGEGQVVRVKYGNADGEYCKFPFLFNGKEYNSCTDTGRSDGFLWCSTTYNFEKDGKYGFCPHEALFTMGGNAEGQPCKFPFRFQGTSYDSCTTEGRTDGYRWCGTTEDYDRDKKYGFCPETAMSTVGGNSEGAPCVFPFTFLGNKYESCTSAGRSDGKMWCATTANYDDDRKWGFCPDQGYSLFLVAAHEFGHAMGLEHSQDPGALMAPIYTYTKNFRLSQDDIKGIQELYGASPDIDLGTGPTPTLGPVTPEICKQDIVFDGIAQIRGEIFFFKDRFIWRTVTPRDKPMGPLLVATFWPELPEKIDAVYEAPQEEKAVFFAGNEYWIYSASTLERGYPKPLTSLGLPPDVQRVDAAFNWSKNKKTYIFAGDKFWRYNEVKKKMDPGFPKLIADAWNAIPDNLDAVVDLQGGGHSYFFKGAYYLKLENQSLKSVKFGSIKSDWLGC

Ki (Interstitial collagenase) | Ki (Stromelysin-1) | Ki [1] | Ki [2] | Ki [3] | Ki (Matrilysin) | AUC [4] | Papp A→B [5] | SMILES
> 10 mM | > 10 mM | > 10 mM | > 10 mM | > 10 mM | > 10 mM | – | – | O=C(NO)[C@H]1C[C@]1(Cc1ccc(OCc2cc(-c3ccccc3)nc3ccccc23)cc1)C(=O)N1CCC[C@H]1CO
– | – | – | – | – | – | > 2.5 µM·h | – | N#C[C@@]1(Cc2ccc(OCc3cc(-c4ccccc4)nc4ccccc34)cc2)C[C@@H]1C(=O)NO
– | – | – | – | – | – | – | 0.3 ×10⁻⁶ cm/s | NC(=O)[C@@]1(Cc2ccc(OCc3cc(-c4ccccc4)nc4ccccc34)c(F)c2)C[C@@H]1C(=O)NO
> 10 mM | 0.058 mM | 1 mM | 2.4 mM | > 10 mM | 0.11 mM | – | – | Cc1cc(COc2ccc(C[C@]3(C(N)=O)C[C@@H]3C(=O)NO)cc2)c2ccccc2n1
